Data published in the NIST ThermoML archive (doi:10.1021/acs.jced.8b00132).
Where “and” joins values, the source holds several entries; their conditions need not be identical. Identical values can stand only once. ± gives the expanded uncertainty stated by the source.

O=C(C(F)(F)C(F)(F)F)C(F)(C(F)(F)F)C(F)(F)F [dodecafluoro-2-methylpentan-3-one]
thermal conductivity (344.55 K, 132 kPa, Gas, hot wire): 0.01525 ± 0.00073 W/m/K | thermal conductivity (344.55 K, 192 kPa, Gas, transient hot wire): 0.01458 ± 0.00091 W/m/K | thermal conductivity (344.56 K, 170 kPa, Gas, transient hot wire): 0.01468 ± 0.00093 W/m/K | thermal conductivity (344.56 K, 192 kPa, Gas, transient hot wire): 0.01463 ± 0.00091 W/m/K | thermal conductivity (344.57 K, 170 kPa, Gas, transient hot wire): 0.01503 ± 0.00094 W/m/K | thermal conductivity (344.6 K, 134 kPa, Gas, transient hot wire): 0.01526 ± 0.00095 W/m/K and 0.01525 ± 0.00095 W/m/K | thermal conductivity (344.61 K, 83 kPa, Gas, hot wire): 0.01485 ± 0.0007 W/m/K | thermal conductivity (344.62 K, 83 kPa, Gas, hot wire): 0.0148 ± 0.0007 W/m/K | thermal conductivity (344.67 K, 26 kPa, Gas, hot wire): 0.01453 ± 0.00069 W/m/K | thermal conductivity (344.68 K, 26 kPa, Gas, hot wire): 0.01449 ± 0.00069 W/m/K | thermal conductivity (344.8 K, 192 kPa, Gas, transient hot wire): 0.01479 ± 0.00097 W/m/K and 0.01481 ± 0.00097 W/m/K | thermal conductivity (344.83 K, 170 kPa, Gas, transient hot wire): 0.01525 ± 0.00095 W/m/K and 0.01449 ± 0.00091 W/m/K | thermal conductivity (344.85 K, 134 kPa, Gas, transient hot wire): 0.01542 ± 0.00096 W/m/K | thermal conductivity (344.87 K, 134 kPa, Gas, transient hot wire): 0.01544 ± 0.001 W/m/K | thermal conductivity (345.08 K, 191 kPa, Gas, transient hot wire): 0.0149 ± 0.00095 W/m/K | thermal conductivity (345.08 K, 192 kPa, Gas, transient hot wire): 0.01491 ± 0.00095 W/m/K | thermal conductivity (345.11 K, 169 kPa, Gas, transient hot wire): 0.01531 ± 0.00096 W/m/K | thermal conductivity (345.11 K, 170 kPa, Gas, transient hot wire): 0.01528 ± 0.00095 W/m/K | thermal conductivity (345.14 K, 134 kPa, Gas, transient hot wire): 0.01546 ± 0.00096 W/m/K | thermal conductivity (345.15 K, 133 kPa, Gas, transient hot wire): 0.01547 ± 0.00096 W/m/K | thermal conductivity (345.36 K, 191 kPa, Gas, transient hot wire): 0.01503 ± 0.00095 W/m/K | thermal conductivity (345.37 K, 191 kPa, Gas, transient hot wire): 0.01504 ± 0.00095 W/m/K | thermal conductivity (345.39 K, 169 kPa, Gas, transient hot wire): 0.01534 ± 0.00096 W/m/K | thermal conductivity (345.4 K, 169 kPa, Gas, transient hot wire): 0.01485 ± 0.00093 W/m/K | thermal conductivity (345.44 K, 133 kPa, Gas, transient hot wire): 0.01551 ± 0.00099 W/m/K | thermal conductivity (345.45 K, 133 kPa, Gas, transient hot wire): 0.0155 ± 0.00099 W/m/K | thermal conductivity (345.67 K, 191 kPa, Gas, transient hot wire): 0.01515 ± 0.00094 W/m/K | thermal conductivity (345.68 K, 191 kPa, Gas, transient hot wire): 0.01514 ± 0.00094 W/m/K | thermal conductivity (345.72 K, 169 kPa, Gas, transient hot wire): 0.0154 ± 0.00095 W/m/K and 0.01511 ± 0.00094 W/m/K | thermal conductivity (345.77 K, 132 kPa, Gas, transient hot wire): 0.01531 ± 0.00095 W/m/K | thermal conductivity (345.77 K, 133 kPa, Gas, transient hot wire): 0.01548 ± 0.00096 W/m/K | thermal conductivity (358.25 K, 257 kPa, Gas, hot wire): 0.01686 ± 0.0008 W/m/K | thermal conductivity (358.26 K, 257 kPa, Gas, hot wire): 0.01685 ± 0.00079 W/m/K | thermal conductivity (358.3 K, 188 kPa, Gas, hot wire): 0.01631 ± 0.00078 W/m/K | thermal conductivity (358.3 K, 189 kPa, Gas, hot wire): 0.01648 ± 0.00078 W/m/K | thermal conductivity (358.33 K, 91 kPa, Gas, hot wire): 0.01584 ± 0.00075 W/m/K | thermal conductivity (358.34 K, 91 kPa, Gas, hot wire): 0.01584 ± 0.00075 W/m/K | thermal conductivity (358.37 K, 26 kPa, Gas, hot wire): 0.01548 ± 0.00073 W/m/K and 0.01551 ± 0.00073 W/m/K | thermal conductivity (358.38 K, 256 kPa, Gas, hot wire): 0.01692 ± 0.0008 W/m/K | thermal conductivity (358.38 K, 257 kPa, Gas, hot wire): 0.01694 ± 0.0008 W/m/K | thermal conductivity (358.43 K, 187 kPa, Gas, hot wire): 0.01629 ± 0.00078 W/m/K | thermal conductivity (358.43 K, 188 kPa, Gas, hot wire): 0.01632 ± 0.00078 W/m/K | thermal conductivity (358.47 K, 91 kPa, Gas, hot wire): 0.01587 ± 0.00075 W/m/K and 0.0159 ± 0.00075 W/m/K | thermal conductivity (358.5 K, 26 kPa, Gas, hot wire): 0.01551 ± 0.00073 W/m/K | thermal conductivity (358.5 K, 256 kPa, Gas, hot wire): 0.01713 ± 0.00081 W/m/K | thermal conductivity (358.51 K, 26 kPa, Gas, hot wire): 0.0155 ± 0.00073 W/m/K | thermal conductivity (358.52 K, 256 kPa, Gas, hot wire): 0.0169 ± 0.0008 W/m/K | thermal conductivity (358.57 K, 187 kPa, Gas, hot wire): 0.01629 ± 0.00077 W/m/K and 0.01635 ± 0.00078 W/m/K | thermal conductivity (358.62 K, 91 kPa, Gas, hot wire): 0.01584 ± 0.00075 W/m/K and 0.01592 ± 0.00075 W/m/K | thermal conductivity (358.62 K, 255 kPa, Gas, hot wire): 0.01734 ± 0.00082 W/m/K | thermal conductivity (358.63 K, 256 kPa, Gas, hot wire): 0.01729 ± 0.00082 W/m/K | thermal conductivity (358.65 K, 67979 kPa, Liquid, transient hot wire): 0.07391 ± 0.0015 W/m/K | thermal conductivity (358.66 K, 26 kPa, Gas, hot wire): 0.01548 ± 0.00073 W/m/K and 0.01547 ± 0.00073 W/m/K | thermal conductivity (358.66 K, 67960 kPa, Liquid, transient hot wire): 0.07383 ± 0.0015 W/m/K | thermal conductivity (358.69 K, 56156 kPa, Liquid, transient hot wire): 0.07064 ± 0.0014 W/m/K | thermal conductivity (358.69 K, 56160 kPa, Liquid, transient hot wire): 0.07055 ± 0.0014 W/m/K | thermal conductivity (358.71 K, 187 kPa, Gas, hot wire): 0.01648 ± 0.00078 W/m/K and 0.01644 ± 0.00078 W/m/K | thermal conductivity (358.77 K, 92 kPa, Gas, hot wire): 0.01588 ± 0.00075 W/m/K and 0.01586 ± 0.00075 W/m/K | thermal conductivity (358.77 K, 255 kPa, Gas, hot wire): 0.01736 ± 0.00082 W/m/K | thermal conductivity (358.77 K, 43866 kPa, Liquid, transient hot wire): 0.06694 ± 0.0014 W/m/K | thermal conductivity (358.77 K, 43876 kPa, Liquid, transient hot wire): 0.06686 ± 0.0014 W/m/K | thermal conductivity (358.78 K, 255 kPa, Gas, hot wire): 0.01726 ± 0.00081 W/m/K | thermal conductivity (358.82 K, 26 kPa, Gas, hot wire): 0.01555 ± 0.00073 W/m/K and 0.0155 ± 0.00073 W/m/K | thermal conductivity (358.82 K, 67912 kPa, Liquid, transient hot wire): 0.07388 ± 0.0015 W/m/K | thermal conductivity (358.82 K, 67930 kPa, Liquid, transient hot wire): 0.07402 ± 0.0015 W/m/K | thermal conductivity (358.83 K, 33615 kPa, Liquid, transient hot wire): 0.06347 ± 0.0013 W/m/K | thermal conductivity (358.84 K, 257 kPa, Gas, transient hot wire): 0.01632 ± 0.001 W/m/K | thermal conductivity (358.84 K, 258 kPa, Gas, transient hot wire): 0.01621 ± 0.001 W/m/K | thermal conductivity (358.84 K, 33614 kPa, Liquid, transient hot wire): 0.06347 ± 0.0013 W/m/K | thermal conductivity (358.85 K, 186 kPa, Gas, hot wire): 0.0166 ± 0.00079 W/m/K and 0.01657 ± 0.00079 W/m/K | thermal conductivity (358.85 K, 56137 kPa, Liquid, transient hot wire): 0.07063 ± 0.0014 W/m/K | thermal conductivity (358.88 K, 189 kPa, Gas, transient hot wire): 0.01639 ± 0.001 W/m/K | thermal conductivity (358.88 K, 56124 kPa, Liquid, transient hot wire): 0.07064 ± 0.0014 W/m/K | thermal conductivity (358.9 K, 188 kPa, Gas, transient hot wire): 0.01635 ± 0.001 W/m/K | thermal conductivity (358.92 K, 24957 kPa, Liquid, transient hot wire): 0.06017 ± 0.0012 W/m/K | thermal conductivity (358.92 K, 24958 kPa, Liquid, transient hot wire): 0.06023 ± 0.0012 W/m/K | thermal conductivity (358.94 K, 92 kPa, Gas, hot wire): 0.01588 ± 0.00075 W/m/K | thermal conductivity (358.95 K, 92 kPa, Gas, hot wire): 0.01588 ± 0.00075 W/m/K | thermal conductivity (358.95 K, 43858 kPa, Liquid, transient hot wire): 0.06694 ± 0.0014 W/m/K | thermal conductivity (358.95 K, 43862 kPa, Liquid, transient hot wire): 0.06691 ± 0.0014 W/m/K | thermal conductivity (358.98 K, 26 kPa, Gas, hot wire): 0.01553 ± 0.00073 W/m/K | thermal conductivity (358.99 K, 26 kPa, Gas, hot wire): 0.0155 ± 0.00073 W/m/K | thermal conductivity (358.99 K, 67877 kPa, Liquid, transient hot wire): 0.0739 ± 0.0015 W/m/K | thermal conductivity (358.99 K, 67897 kPa, Liquid, transient hot wire): 0.07388 ± 0.0015 W/m/K
